The test system of one experiment is Male rats. The experiment in a line: Elevated plus maze test (anxiolytic effects). In kind it is in vivo. Conditions: rat, doses 1 mg/kg and 5 mg/kg. The text has this:
In the present study, 32 was investigated on measures of anxiety in an elevated plus-maze test in the rat. In this test, an anxiolytic effect is defined as an increase in the percentage of total entries made onto the open arms and an increase in the percentage of time spent on the open arms of the elevated plus-maze. Anxiogenic drugs reduce both of these measures.
Male rats (Iffa Crédo, St Germain/l'Arbresle, France), weight 220−320 g ate the beginning of the experiment were housed 2 per cage on a 12 h/12 h light dark cycle (lights on at 7.00 a.m.) at a room temperature of 21±2° C. for a minimum of 5 days before testing. All animals had access to commercial food and tap water ad libitum.
The elevated plus maze test consists of four arms connected by a central square, the arms are all horizontal and at 90° […]. angle from each other making the shape of a plus sign. The maze is raised to a height of 50 cm from the ground. […] These arms are therefore referred to as the enclosed arms, respectively.
Each test was started by placing the rat at the intersect of the maze arms facing into one of the enclosed arms. The rat had free access to all 4 arms for the period of 5 min. The number and duration of entries into each arm during this time were scored manually.
Undruged rats typically spend 30-60 seconds on the open arms and about 3 minutes on the closed arms. […]

For a further experiment, the target named is human serotonin 5-HT2B (Homo sapiens, UniProt P41595). The experiment in a line: Behavioral receptor assays: 5-HT2B. It is filed as binding. Conditions: read-out: Receptors (IC50) 5-HT2B. Here is the method: (§1) Various compounds of the present invention (19, 31, and 32) were evaluated in a group of assays based on mammalian cellular receptors associated with behavior. The group consisted of assays base on human dopamine D1, D2L, D3, D4.2, D4.4, D4.7, and D5 receptors, and the transporter; human serotonin 5-HT1A, 5-HT1B, 5-HT1D, 5-HT2A, 5-HT2B, 5-HT2C, 5-HT3, 5-HT5A, 5-HT6, and 5-HT7 receptors, and the human serotonin transporter; guinea pig 5-HT4 and sigma-1 receptors; rat sigma-2 and muscarinic receptors; and human NK1-3 receptors. The following table presents a subset of the results of these assays.
Sequence of human serotonin 5-HT2B (P41595 whole entry): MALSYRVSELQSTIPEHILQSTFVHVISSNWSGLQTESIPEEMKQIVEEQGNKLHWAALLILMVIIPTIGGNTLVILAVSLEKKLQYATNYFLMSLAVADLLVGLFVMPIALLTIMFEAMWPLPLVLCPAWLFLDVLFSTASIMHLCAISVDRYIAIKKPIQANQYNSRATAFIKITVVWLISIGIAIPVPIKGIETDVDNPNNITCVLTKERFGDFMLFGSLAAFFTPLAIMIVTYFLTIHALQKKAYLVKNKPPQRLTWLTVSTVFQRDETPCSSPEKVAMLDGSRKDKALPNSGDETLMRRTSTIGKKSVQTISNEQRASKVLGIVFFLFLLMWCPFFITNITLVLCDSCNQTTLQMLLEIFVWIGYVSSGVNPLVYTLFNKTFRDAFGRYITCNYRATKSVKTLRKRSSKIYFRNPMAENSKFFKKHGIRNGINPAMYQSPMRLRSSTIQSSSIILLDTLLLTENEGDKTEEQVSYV

The target of the next experiment is human serotonin 5-HT2A (Homo sapiens, UniProt P28223). The experiment in a line: Behavioral receptor assays: 5-HT2A. In kind it is binding. The note with it: read-out: Receptors (IC50) 5-HT2A. The procedure:
as §1

In a further experiment the test system is Male Wistar rats. The experiment in a line: MK-801-Induced Psychosis Model. It is filed as in vivo, rat. The note with it: rat, 1 mg/kg i.p.; MK-801 0.3 mg/kg i.p. The source says:
The non-competitive NMDA receptor antagonist MK-801 induces stereotypies and hyperactivity in rodents (1) by interacting with the NMDA receptor-associated ion channel. Phencyclidine, which also interferes with the NMDA receptor, produces psychotic effects in humans similar in many respects to schizophrenia. […] Therefore the MK-801-induced activity and stereotypies in rats may represent an appropriate animal model to test the potential efficacy of antipsychotic drugs.
Male Wistar rats (Iffa Crédo, St Germain/l'Arbresle, France), weight 250-300 g were housed 2 per cage on a 12 h/12 h light dark cycle (lights on at 7.00 a.m.) at a room temperature of 21±2° C. for a minimum of 5 days before testing. All animals had access to commercial food and tap water ad libitum.
On the day of the experiment, rats were treated with either reference drug vehicle, the reference drugs haloperidol or clozapine the test compound vehicle or test compounds. After administration, the rats were returned to their home cages for 15 minutes. […] The remaining rats treated with placebo received a second injection of vehicle. The standard injection volume was 2.0 ml/kg. After 10 minutes in the home cages, rats were transferred to the test box (Plexiglas, 29×12×12 cm), 5 minutes before the assessment for accomodation. The test box was cleaned with 70% ethanol before each assessment. Stereotypies, defined as wall-contacts with the snout, and locomotion, defined as turn-rounds of 180°, were assessed during 5 minute periods.

The subject of another experiment is Rat GABAA Transporter. The experiment in a line: Additional receptor assay. It is filed as binding. Conditions: 10 μM. Here is the method:
(§2) Results of Additional Receptor Assays Performed on Compound 31 at a Concentration of 10 μM

A further experiment has as its target Rat GABAB (Rattus norvegicus, UniProt Q9Z0U4). The experiment in a line: Additional receptor assay. Conditions: 10 μM. It is filed as binding. Here is the method:
as §2

A further experiment has as its system Rat GABAA Agonist Site. The experiment in a line: Additional receptor assay. Conditions: 10 μM. In kind it is binding. The procedure: as §2
The subject of the next experiment is Rat Adrenergic α1. The experiment in a line: Additional receptor assay. In kind it is binding. The note with it: 10 μM. The procedure:
as §2

Experiment [1] concerns Rat GABAA Chloride Channel. The experiment in a line: Additional receptor assay. It is filed as binding. The note with it: 10 μM. Here is the method:
as §2

In the next experiment the target is Human Adrenergic β2 (Homo sapiens, UniProt P07550). The experiment in a line: Additional receptor assay. In kind it is binding. Here is the method: as §2
Sequence of Human Adrenergic β2 (P07550 whole entry): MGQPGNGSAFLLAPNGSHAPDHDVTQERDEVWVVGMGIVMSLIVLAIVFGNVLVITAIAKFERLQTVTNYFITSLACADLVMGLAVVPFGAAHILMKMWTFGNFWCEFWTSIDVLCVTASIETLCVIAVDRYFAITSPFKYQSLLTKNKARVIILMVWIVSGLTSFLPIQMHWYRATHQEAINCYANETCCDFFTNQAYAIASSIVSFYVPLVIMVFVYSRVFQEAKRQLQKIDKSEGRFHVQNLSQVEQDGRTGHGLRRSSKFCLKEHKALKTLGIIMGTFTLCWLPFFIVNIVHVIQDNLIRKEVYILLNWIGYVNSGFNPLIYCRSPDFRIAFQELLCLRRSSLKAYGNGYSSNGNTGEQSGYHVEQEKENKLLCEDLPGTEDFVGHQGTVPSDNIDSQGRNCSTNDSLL
In another experiment the target is Human Adrenergic β1 (Homo sapiens, UniProt P08588). The experiment in a line: Additional receptor assay. In kind it is binding. Here is the method: as §2
Sequence of Human Adrenergic β1 (P08588 whole entry): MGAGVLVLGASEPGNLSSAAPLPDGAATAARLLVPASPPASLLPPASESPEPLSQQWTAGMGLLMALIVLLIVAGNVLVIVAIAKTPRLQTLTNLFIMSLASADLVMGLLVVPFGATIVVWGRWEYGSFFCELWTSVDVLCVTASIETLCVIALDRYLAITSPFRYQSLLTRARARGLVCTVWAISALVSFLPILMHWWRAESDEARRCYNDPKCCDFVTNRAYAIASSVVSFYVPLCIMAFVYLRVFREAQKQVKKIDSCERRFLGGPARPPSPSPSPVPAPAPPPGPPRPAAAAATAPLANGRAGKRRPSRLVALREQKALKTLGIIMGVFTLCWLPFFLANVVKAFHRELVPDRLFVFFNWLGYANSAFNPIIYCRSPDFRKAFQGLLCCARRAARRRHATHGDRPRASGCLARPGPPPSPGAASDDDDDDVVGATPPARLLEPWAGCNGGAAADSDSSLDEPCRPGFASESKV
The test system of experiment [2] is Rat Glutamate, NMDA (Phencyclidine). The experiment in a line: Additional receptor assay. It is filed as binding. Conditions: 10 μM. The procedure:
as §2

A further experiment concerns the target Human Orphanin (ORL1) (Homo sapiens, UniProt P41146). The experiment in a line: Additional receptor assay. It is filed as binding. The procedure:
as §2

The next experiment has as its target Human Adrenergic α2A (Homo sapiens, UniProt P08913). The experiment in a line: Additional receptor assay. In kind it is binding. Here is the method:
as §2

Experiment [3] has as its system Rat Glutamate, NMDA (Agonist). The experiment in a line: Additional receptor assay. The note with it: 10 μM. It is filed as binding. The procedure:
as §2

A further experiment has as its target Human Adrenergic β3 (Homo sapiens, UniProt P13945). The experiment in a line: Additional receptor assay. It is filed as binding. The procedure: as §2
Experiment [4] relates to Rat GABAA Benzodiazepine (Central). The experiment in a line: Additional receptor assay. It is filed as binding. Conditions: 10 μM. Here is the method:
as §2

The target in experiment [5] is Rat Glutamate, NMDA (Glycine) (Rattus norvegicus, UniProt P35439). The experiment in a line: Additional receptor assay. It is filed as binding. Here is the method: as §2
Experiment [6] deals with Rat Glutamate, NMDA (Polyamine). The experiment in a line: Additional receptor assay. In kind it is binding. Conditions: 10 μM. The procedure:
as §2

Experiment [7] deals with Rat GABAA Benzodiazepine (Peripheral) (Rattus norvegicus, UniProt P16257). The experiment in a line: Additional receptor assay. In kind it is binding. The procedure: as §2
The target in the next experiment is Human Adrenergic α2C (Homo sapiens, UniProt P18825). The experiment in a line: Additional receptor assay. In kind it is binding. The procedure:
as §2

Sequence of Rat GABAB (Q9Z0U4 17-960 limits assumed): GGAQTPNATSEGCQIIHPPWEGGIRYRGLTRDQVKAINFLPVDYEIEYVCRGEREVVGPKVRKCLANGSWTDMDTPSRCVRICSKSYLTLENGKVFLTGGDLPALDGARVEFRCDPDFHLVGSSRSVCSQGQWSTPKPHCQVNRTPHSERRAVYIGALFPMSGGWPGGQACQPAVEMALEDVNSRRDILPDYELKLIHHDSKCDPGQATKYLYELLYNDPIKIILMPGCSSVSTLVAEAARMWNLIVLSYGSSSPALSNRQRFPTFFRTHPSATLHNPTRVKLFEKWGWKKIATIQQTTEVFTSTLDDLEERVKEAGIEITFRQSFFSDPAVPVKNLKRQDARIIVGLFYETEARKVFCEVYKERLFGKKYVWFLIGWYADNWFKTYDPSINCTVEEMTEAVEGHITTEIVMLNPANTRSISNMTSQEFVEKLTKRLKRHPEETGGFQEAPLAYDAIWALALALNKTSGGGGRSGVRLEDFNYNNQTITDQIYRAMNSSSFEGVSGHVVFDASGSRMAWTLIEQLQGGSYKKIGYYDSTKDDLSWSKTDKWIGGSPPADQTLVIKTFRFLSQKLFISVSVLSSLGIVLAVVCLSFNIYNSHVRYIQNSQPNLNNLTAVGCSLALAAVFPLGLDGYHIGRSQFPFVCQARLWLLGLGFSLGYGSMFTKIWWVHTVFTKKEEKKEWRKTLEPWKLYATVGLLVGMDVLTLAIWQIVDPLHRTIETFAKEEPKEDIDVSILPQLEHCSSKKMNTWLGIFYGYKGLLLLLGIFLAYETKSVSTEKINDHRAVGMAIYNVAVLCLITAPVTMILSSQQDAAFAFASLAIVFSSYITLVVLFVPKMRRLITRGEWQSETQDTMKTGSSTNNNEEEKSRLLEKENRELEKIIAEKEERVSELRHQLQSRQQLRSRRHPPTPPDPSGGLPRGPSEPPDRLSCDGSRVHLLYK
Sequence of Rat GABAB (O88871 41-940 partner): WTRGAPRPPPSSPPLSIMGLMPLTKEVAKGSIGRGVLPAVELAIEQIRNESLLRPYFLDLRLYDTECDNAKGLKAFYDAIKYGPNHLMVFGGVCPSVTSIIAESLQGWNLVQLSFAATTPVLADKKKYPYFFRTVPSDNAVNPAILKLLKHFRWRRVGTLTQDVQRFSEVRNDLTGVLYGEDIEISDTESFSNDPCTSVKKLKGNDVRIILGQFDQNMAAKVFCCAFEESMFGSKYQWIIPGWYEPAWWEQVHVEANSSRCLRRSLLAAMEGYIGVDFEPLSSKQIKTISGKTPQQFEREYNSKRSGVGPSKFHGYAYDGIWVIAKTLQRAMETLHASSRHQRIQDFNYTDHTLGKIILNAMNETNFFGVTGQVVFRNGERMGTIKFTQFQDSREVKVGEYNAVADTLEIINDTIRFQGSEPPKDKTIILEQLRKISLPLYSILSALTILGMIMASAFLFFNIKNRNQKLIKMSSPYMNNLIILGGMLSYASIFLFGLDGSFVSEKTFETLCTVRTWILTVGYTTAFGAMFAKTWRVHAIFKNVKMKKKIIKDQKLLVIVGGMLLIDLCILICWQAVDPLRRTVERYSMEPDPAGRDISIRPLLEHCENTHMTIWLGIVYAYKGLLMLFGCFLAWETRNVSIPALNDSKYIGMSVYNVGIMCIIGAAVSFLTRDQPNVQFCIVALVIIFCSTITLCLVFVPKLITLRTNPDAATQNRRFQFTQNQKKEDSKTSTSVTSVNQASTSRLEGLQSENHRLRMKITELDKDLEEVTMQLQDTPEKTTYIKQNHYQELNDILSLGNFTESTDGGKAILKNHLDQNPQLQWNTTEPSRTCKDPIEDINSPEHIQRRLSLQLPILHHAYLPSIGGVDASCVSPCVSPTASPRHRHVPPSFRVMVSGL
Sequence of human serotonin 5-HT2A (P28223 whole entry): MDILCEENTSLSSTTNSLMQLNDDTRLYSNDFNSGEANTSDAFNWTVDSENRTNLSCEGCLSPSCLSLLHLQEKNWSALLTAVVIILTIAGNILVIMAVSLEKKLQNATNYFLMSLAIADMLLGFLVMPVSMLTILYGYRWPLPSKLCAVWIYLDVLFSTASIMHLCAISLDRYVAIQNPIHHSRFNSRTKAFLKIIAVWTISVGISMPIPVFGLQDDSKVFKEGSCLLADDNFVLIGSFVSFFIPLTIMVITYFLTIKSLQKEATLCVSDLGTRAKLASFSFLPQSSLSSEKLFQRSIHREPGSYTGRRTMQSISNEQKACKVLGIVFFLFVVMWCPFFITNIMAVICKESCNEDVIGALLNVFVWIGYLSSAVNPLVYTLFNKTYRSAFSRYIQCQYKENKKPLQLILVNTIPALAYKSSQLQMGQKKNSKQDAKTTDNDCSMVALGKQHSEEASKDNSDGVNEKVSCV
Sequence of Human Orphanin (ORL1) (P41146 whole entry): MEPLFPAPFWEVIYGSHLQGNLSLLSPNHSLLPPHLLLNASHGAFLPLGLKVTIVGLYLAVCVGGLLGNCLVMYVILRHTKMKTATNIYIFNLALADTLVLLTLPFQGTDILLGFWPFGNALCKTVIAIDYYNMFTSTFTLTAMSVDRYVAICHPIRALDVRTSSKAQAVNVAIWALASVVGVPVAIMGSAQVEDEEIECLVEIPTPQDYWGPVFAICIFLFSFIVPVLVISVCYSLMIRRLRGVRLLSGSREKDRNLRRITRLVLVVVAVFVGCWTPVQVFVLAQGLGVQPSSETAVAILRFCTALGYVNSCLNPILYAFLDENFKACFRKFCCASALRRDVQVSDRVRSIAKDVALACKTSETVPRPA
Sequence of Human Adrenergic α2C (P18825 whole entry): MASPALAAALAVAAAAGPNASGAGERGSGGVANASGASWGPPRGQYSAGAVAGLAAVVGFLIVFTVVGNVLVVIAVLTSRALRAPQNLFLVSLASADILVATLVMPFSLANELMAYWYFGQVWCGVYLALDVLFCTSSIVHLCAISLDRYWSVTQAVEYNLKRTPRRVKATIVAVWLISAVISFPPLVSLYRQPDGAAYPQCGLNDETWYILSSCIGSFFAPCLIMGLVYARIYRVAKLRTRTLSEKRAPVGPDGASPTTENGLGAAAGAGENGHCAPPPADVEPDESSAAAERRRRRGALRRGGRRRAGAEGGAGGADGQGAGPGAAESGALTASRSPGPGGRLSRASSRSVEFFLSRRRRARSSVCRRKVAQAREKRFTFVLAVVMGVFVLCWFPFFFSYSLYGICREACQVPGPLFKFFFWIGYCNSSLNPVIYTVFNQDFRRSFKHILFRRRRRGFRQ
Sequence of Human Adrenergic α2A (P08913 whole entry): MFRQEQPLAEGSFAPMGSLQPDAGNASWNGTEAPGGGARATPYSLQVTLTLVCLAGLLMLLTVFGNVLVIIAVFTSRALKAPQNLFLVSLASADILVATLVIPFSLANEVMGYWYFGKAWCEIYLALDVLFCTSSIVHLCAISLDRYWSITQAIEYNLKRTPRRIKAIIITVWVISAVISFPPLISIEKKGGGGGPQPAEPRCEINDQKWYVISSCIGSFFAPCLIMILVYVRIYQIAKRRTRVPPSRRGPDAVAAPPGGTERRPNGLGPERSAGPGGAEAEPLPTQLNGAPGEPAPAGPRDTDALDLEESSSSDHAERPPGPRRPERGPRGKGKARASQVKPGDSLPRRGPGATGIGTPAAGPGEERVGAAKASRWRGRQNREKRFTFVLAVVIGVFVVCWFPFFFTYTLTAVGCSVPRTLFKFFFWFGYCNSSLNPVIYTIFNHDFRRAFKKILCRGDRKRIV

Consider `OC1CCC2(CCN(Cc3ccc(F)cc3)CC2)Nc2ccccc21` (racemic) [Compound 32, 1′-(4-fluorobenzyl)-3,4-dihydrospiro[5H-1-benzazepine-2(1H)-4′-piperidin]-5ol], for which the “anxiolytic effect in elevated plus-maze” value with Male rats is “tendency towards an anxiolytic effects”. In addition, the concentration for half-maximal inhibition (IC50) on human serotonin 5-HT2B was < 1000 nM. Also, the concentration for half-maximal inhibition (IC50) at human serotonin 5-HT2A was > 1000 nM. Moreover, in the experiment on Male Wistar rats, the MK-801-induced locomotion entry is “caused a reduction” and the MK-801-induced stereotypies entry was “caused a reduction”.
For `O=C1CCC2(CCN(Cc3ccc(F)cc3)CC2)Nc2ccccc21` [Compound 31, 1′-(4-fluorobenzyl)-3,4-dihydrospiro[5H-1-benzazepine-2(1H)-4′-piperidin]-5-one], the “% Inhibition Rat GABAA Transporter” value with Rat GABAA Transporter is recorded as “No Inhibition”. Further, on Rat GABAB, the “% Inhibition Rat GABAB” value was “No Inhibition”. The “% Inhibition Rat GABAA Agonist Site” value with Rat GABAA Agonist Site came out at 13%. Moreover, in the experiment on Rat Adrenergic α1, the “% Inhibition Rat Adrenergic α1” value is given as 21%. Moreover, the “% Inhibition Rat GABAA Chloride Channel” value in experiment [1] is reported as “No Inhibition”. Moreover, the inhibition at 10 µM amounted to 15% against Human Adrenergic β2; 3% against Human Adrenergic β1; 12% against Human Orphanin (ORL1); 34% against Human Adrenergic α2A; 19% against Human Adrenergic β3; 2% in [5]. For the same compound, the results for the inhibition at 10 µM (in experiment [7]; at Human Adrenergic α2C) were 16% and 2%, respectively. Besides, the “% Inhibition Rat Glutamate, NMDA (Phencyclidine)” value in experiment [2] was “No Inhibition”. Also, the “% Inhibition Rat Glutamate, NMDA (Agonist)” value in [3] is “No Inhibition”. For the same compound, in [4], the “% Inhibition Rat GABAA Benzodiazepine (Central)” value was 6%. Also, the “% Inhibition Rat Glutamate, NMDA (Polyamine)” value in experiment [6] was found to be 12%.

For the origin of these results see patent publication US6476019B1, “Spirocyclic ligands for sigma receptors, and libraries and methods of use thereof” (Sepracor Inc., priority 1999, dated 2002).
